This data set concerns MCF-7 cells. In words: Growth inhibition of siRNA-transfected MCF-7 cells, SYBR Green I DNA content. It counts as cell-based, human. To be noted: 10 nM siRNA; standardized against control siRNA. The protocol: A549 cells (human lung cancer cell line; ATCC No. CCL-185), SK-MeI-5 cells (human melanoma cell line; ATCC No. HTB-70), MCF-7 cells (human adenocarcinoma cell line; ATCC No. HTB-22), HCT-116 cells (colorectal carcinoma; ATCC CCL-247) and HCT-116 p53 null cells (derived from ATCC No. CCL-247; Bunz et al., Science 282:1497-1501, 1998) were cultured in RPMI 1640 medium with 10% v/v heat-inactivated fetal calf serum (FCS). Cells were seeded at a density of 5×10^4 cells/cm^2 in multi-well tissue culture plates. […] The cellular DNA content was measured using a SYBR Green I-based fluorometric assay at 24, 48, 72 and 96 hours after transfection (120 hours for the MCF-7 cells), as follows. […]
The following day, cell lysates were mixed thoroughly, and DNA fluorescence was measured with a Wallac Victor^2 plate reader (Turku, Finland) set at an excitation frequency of 485 nm and measuring emission at 535 nm.
siRNA-mediated RNAi was also determined on a panel of different cell lines. A549, SK-MeI-5, wt HCT-116, HCT-116−/−p53 and MCF-7 cells were transfected with 10 nM siRNAs targeting YBX-1 and growth inhibition determined as described above. […]

Regarding “SEQ ID NO: 4982: siRNA targeting YBX1 (chain 1 TTTGCTGGTAATTGCGTGGAGGACC; chain 2 UUUGCUGGUAAUUGCGUGGAGGACC; chemistry not given here; one strand in two spellings)”, the “growth inhibition, MCF7 cells” value is on record as “++ (At least 50% inhibition)”.

For the origin of these results see patent US20080145313A1, “Compositions and Methods for the Treatment and Prevention of Neoplastic Disorders” (Genesis Research & Development Corporation Limited, priority 2006, published 2008).
